In patent US20200361930A1, “BIFUNCTIONAL MOLECULES THAT DEGRADE EGFR” (Hoffmann-La Roche Inc., priority 2018, published 2020):

Biological target: T1, EGFR T790M/L858R/C797S (Homo sapiens, UniProt P00533, C797S/L858R/T790M)
T1 construct: expressed in transfected cells; host or cells: BaF3 (Ba/F3) cells, lentivirally transduced with a pCDH vector under the PGK promoter
Test: EGFR degradation assay (cellular), FRET quantification of total EGFR
Assay type: cell-based
Conditions: BaF3 EGFR T790M/L858R/C797S cells, 4 hours incubation, total EGFR FRET signal, top concentration 1 μM; read-out: IC50 value (BaF3 EGFR T790M/L858R/C797S degradation)
Description: EGFR Degradation Assay (Cellular)
The BaF3 parental line was purchased from DSMZ and grown in RPMI media supplemented with 10% FBS and 10 ng/mL interleukin 3 (IL-3) (Thermo Fisher Scientific). EGFR mutants (T790M/L853R, T790M/L853R/C797S) were cloned into the pCDH lentiviral vector (SystemBio) under the control of a PGK promoter and confirmed by DNA sequencing. The resulting gene expression vector for each mutant was mixed with packaging vectors and cotransfected into 2×10E6 HEK293T cells (ATCC) in 10 mL of DMEM media to generate lentiviral particles according to the manufacturers protocol (Origene).
Three days post-transfection, the viral supernatant was harvested and filtered. In one well of a 12-well plate, 0.5 mL of viral supernatant was added to 2E6 Ba/F3 cells contained in 1.5 mL of RPMI media including 10% FBS, 10 ng/mL IL-3, and 5 μg/mL polybrene (Invitrogen). The plate was centrifuged at 2,000 rpm for 1 hour at room temperature and infected cells were kept in a tissue culture incubator overnight at 37° C. The cells were washed once in fresh BaF3 media and reseeded at 0.5E6 cells/well of a 12-well plate in media supplemented with 0.5 μg/mL puromycin. The cells were maintained in this media for 3 weeks. IL-3-independent, EGFR mutant transformed cells were routinely maintained in RPMI medium supplemented with 10% FBS.
RPMI 1640 no-phenol red medium and fetal bovine serum (FBS) were purchased from Gibco (Grand Island, N.Y., USA). EGFR total kit and EGFR phospho-Y1068 kit were purchased from Cisbio (Bedford, Mass., USA). BaF3 EGFR mutant cell lines (EGFR T790M/L858R/C797S) cell line was generated in house, according to the protocol reported above. Cell culture flasks and 384-well microplates were acquired from VWR (Radnor, Pa., USA).
EGFR degradation was determined based on quantification of FRET signal using EGFR total kit. The FRET signal detected correlates with total EGFR protein level in cells. Briefly, test compounds were added to the 384-well plate from a top concentration of 1 μM with 11 points, half log titration in quadruplicates. Then, BaF3 EGFR mutant cell lines (EGFR T790M/L858R/C797S) were added into 384-well plates at a cell density of 10000 cells per well. The plates were kept at 37° C. with 5% CO2 for 4 hours. After 4-hour incubation, 4× lysis buffer was added to the cells, and then then microplate was agitated on plate shaker at 500 rpm for 30 minutes at room temperature. Next, total EGFR antibody solution was added to the cells and the cells were incubated for another 4 hours at room temperature. Finally, FRET signal was acquired on EnVision™ Multilabel Reader (PerkinElmer, Santa Clara, Calif., USA). The cells treated in the absence of the test compound were the negative control and lysis buffer with antibody solution only were the positive control.

T1 sequence (P00533 25-1210 T790M/C797S/L858R): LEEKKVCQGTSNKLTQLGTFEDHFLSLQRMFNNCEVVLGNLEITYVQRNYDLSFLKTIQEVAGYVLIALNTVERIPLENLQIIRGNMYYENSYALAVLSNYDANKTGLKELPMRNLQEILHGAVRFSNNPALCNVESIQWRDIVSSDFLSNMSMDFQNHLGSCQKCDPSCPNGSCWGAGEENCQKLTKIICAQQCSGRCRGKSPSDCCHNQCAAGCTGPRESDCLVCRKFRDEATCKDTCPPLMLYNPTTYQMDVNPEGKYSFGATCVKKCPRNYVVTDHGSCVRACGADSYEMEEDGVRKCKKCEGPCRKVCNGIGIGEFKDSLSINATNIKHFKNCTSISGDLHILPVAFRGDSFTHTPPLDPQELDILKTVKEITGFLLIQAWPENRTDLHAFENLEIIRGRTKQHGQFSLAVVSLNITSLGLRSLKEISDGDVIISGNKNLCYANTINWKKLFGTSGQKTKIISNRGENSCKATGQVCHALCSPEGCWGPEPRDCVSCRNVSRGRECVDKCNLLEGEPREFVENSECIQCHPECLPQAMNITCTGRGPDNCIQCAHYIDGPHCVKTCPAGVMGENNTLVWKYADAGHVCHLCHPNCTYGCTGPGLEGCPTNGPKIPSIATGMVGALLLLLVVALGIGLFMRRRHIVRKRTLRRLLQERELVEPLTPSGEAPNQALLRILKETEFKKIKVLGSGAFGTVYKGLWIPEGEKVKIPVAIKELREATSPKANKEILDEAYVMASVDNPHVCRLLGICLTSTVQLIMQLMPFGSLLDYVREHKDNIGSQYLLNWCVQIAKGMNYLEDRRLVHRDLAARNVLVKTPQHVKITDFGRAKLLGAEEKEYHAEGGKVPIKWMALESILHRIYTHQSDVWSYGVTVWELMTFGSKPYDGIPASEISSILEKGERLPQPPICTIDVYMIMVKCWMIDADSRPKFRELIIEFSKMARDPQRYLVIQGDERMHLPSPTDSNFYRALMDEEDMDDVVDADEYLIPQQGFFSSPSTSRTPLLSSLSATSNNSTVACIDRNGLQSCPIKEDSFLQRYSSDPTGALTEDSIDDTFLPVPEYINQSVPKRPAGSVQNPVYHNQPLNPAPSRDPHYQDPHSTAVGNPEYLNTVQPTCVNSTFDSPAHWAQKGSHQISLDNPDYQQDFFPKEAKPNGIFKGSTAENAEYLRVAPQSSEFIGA

| SMILES | DC50 [nM] |
| --- | --- |
| O=C1CCC(N2C(=O)c3cccc(NCCCC(=O)N4CCC(NC(=O)c5ccc(C#Cc6ccc7c(c6)C(=O)N(C(C(=O)Nc6nccs6)c6cc(F)ccc6O)C7)cn5)CC4)c3C2=O)C(=O)N1 (racemic) [Example 7, N-[1-[4-[[2-[(3RS)-2,6-Dioxo-3-piperidyl]-1,3-dioxo-isoindolin-4-yl]amino]butanoyl]-4-piperidyl]-5-[2-[2-[(1RS)-1-(5-fluoro-2-hydroxy-phenyl)-2-oxo-2-(thiazol-2-ylamino)ethyl]-3-oxo-isoindolin-5-yl]ethynyl]pyridine-2-carboxamide] | 12 |
| O=C1CCC(N2C(=O)c3cccc(N4CCC(CC(=O)N5CCN(Cc6ccc(C#Cc7ccc8c(c7)C(=O)N(C(C(=O)Nc7ccccn7)c7ccccc7)C8)cn6)CC5)CC4)c3C2=O)C(=O)N1 (racemic) [Example 12, (2RS)-2-[6-[2-[6-[[4-[2-[1-[2-[(3RS)-2,6-Dioxo-3-piperidyl]-1,3-dioxo-isoindolin-4-yl]-4-piperidyl]acetyl]piperazin-1-yl]methyl]-3-pyridyl]ethynyl]-1-oxo-isoindolin-2-yl]-2-phenyl-N-(2-pyridyl)acetamide] | 38 |
| O=C1CCC(N2C(=O)c3cccc(NCCCCN4CCC(NC(=O)c5ccc(C#Cc6ccc7c(c6)C(=O)N(C(C(=O)Nc6nccs6)c6cc(F)ccc6O)C7)cn5)CC4)c3C2=O)C(=O)N1 (racemic) [Example 10, N-[1-[4-[[2-[(3RS)-2,6-Dioxo-3-piperidyl]-1,3-dioxo-isoindolin-4-yl]amino]butyl]-4-piperidyl]-5-[2-[2-[(1RS)-1-(5-fluoro-2-hydroxy-phenyl)-2-oxo-2-(thiazol-2-ylamino)ethyl]-3-oxo-isoindolin-5-yl]ethynyl]pyridine-2-carboxamide] | 13 |
| O=C1CCC(N2C(=O)c3cccc(NCCCC(=O)N4CCC(NC(=O)c5ccc(C#Cc6ccc7c(c6)C(=O)N(C(C(=O)Nc6nccs6)c6ccccc6)C7)cn5)CC4)c3C2=O)C(=O)N1 (racemic) [Example 2, N-[1-[4-[[2-[(3RS)-2,6-Dioxo-3-piperidyl]-1,3-dioxo-isoindolin-4-yl]amino]butanoyl]-4-piperidyl]-5-[2-[3-oxo-2-[(1RS)-2-oxo-1-phenyl-2-(thiazol-2-ylamino)ethyl]isoindolin-5-yl]ethynyl]pyridine-2-carboxamide] | 21 |
| O=C1CCC(N2C(=O)c3cccc(NCCCCN4CCC(NC(=O)c5ccc(C#Cc6ccc7c(c6)C(=O)N(C(C(=O)Nc6nccs6)c6ccccc6)C7)cn5)CC4)c3C2=O)C(=O)N1 (racemic) [Example 6, N-[1-[4-[[2-[(3RS)-2,6-Dioxo-3-piperidyl]-1,3-dioxo-isoindolin-4-yl]amino]butyl]-4-piperidyl]-5-[2-[3-oxo-2-[(1RS)-2-oxo-1-phenyl-2-(thiazol-2-ylamino)ethyl]isoindolin-5-yl]ethynyl]pyridine-2-carboxamide] | 21 |
| O=C1CCC(N2C(=O)c3ccc(N4CCC(CN5CCC(NC(=O)c6ccc(C#Cc7ccc8c(c7)C(=O)N(C(C(=O)Nc7ccccn7)c7ccccc7)C8)cn6)CC5)CC4)cc3C2=O)C(=O)N1 (racemic) [Example 11, N-[1-[[1-[2-[(3RS)-2,6-Dioxo-3-piperidyl]-1,3-dioxo-isoindolin-5-yl]-4-piperidyl]methyl]-4-piperidyl]-5-[2-[3-oxo-2-[(1RS)-2-oxo-1-phenyl-2-(2-pyridylamino)ethyl]isoindolin-5-yl]ethynyl]pyridine-2-carboxamide] | 48 |
| O=C1CCC(N2C(=O)c3cccc(NCCCCN4CCC(NC(=O)c5ccc(C#Cc6ccc7c(c6)C(=O)N(C(C(=O)Nc6ccccn6)c6ccccc6)C7)cn5)CC4)c3C2=O)C(=O)N1 (racemic) [Example 9, N-[1-[4-[[2-[(3RS)-2,6-Dioxo-3-piperidyl]-1,3-dioxo-isoindolin-4-yl]amino]butyl]-4-piperidyl]-5-[2-[3-oxo-2-[(1RS)-2-oxo-1-phenyl-2-(2-pyridylamino)ethyl]isoindolin-5-yl]ethynyl]pyridine-2-carboxamide] | 52 |

The remaining lines, values ahead:

| DC50 [nM] | SMILES |
| --- | --- |
| 20 | O=C1CCC(N2C(=O)c3cccc(NCCCCN4CCC(NC(=O)c5ncc(C#Cc6ccc7c(c6)C(=O)N(C(C(=O)Nc6nccs6)c6ccccc6)C7)cc5F)CC4)c3C2=O)C(=O)N1 (racemic) [Example 8, N-[1-[4-[[2-[(3RS)-2,6-Dioxo-3-piperidyl]-1,3-dioxo-isoindolin-4-yl]amino]butyl]-4-piperidyl]-3-fluoro-5-[2-[3-oxo-2-[(1RS)-2-oxo-1-phenyl-2-(thiazol-2-ylamino)ethyl]isoindolin-5-yl]ethynyl]pyridine-2-carboxamide] |
| 18 | O=C1CCC(N2C(=O)c3cccc(NCC(=O)N4CCC(NC(=O)c5ccc(C#Cc6ccc7c(c6)C(=O)N(C(C(=O)Nc6nccs6)c6ccccc6)C7)cn5)CC4)c3C2=O)C(=O)N1 (racemic) [Example 5, N-[1-[2-[[2-[(3RS)-2,6-Dioxo-3-piperidyl]-1,3-dioxo-isoindolin-4-yl]amino]acetyl]-4-piperidyl]-5-[2-[3-oxo-2-[(1RS)-2-oxo-1-phenyl-2-(thiazol-2-ylamino)ethyl]isoindolin-5-yl]ethynyl]pyridine-2-carboxamide] |
| 35 | O=C1CCC(N2C(=O)c3cccc(NCCCC(=O)N4CCN(Cc5ccc(C#Cc6ccc7c(c6)C(=O)N(C(C(=O)Nc6nccs6)c6ccccc6)C7)cc5)CC4)c3C2=O)C(=O)N1 (racemic) [Example 3, (2RS)-2-[6-[2-[4-[[4-[4-[[2-[(3RS)-2,6-Dioxo-3-piperidyl]-1,3-dioxo-isoindolin-4-yl]amino]butanoyl]piperazin-1-yl]methyl]phenyl]ethynyl]-1-oxo-isoindolin-2-yl]-2-phenyl-N-thiazol-2-yl-acetamide] |
| 40 | O=C1CCC(N2C(=O)c3cccc(NCCCCCC(=O)N4CCN(Cc5ccc(C#Cc6ccc7c(c6)C(=O)N(C(C(=O)Nc6nccs6)c6ccccc6)C7)cc5)CC4)c3C2=O)C(=O)N1 (racemic) [Example 1, (2RS)-2-[6-[2-[4-[[4-[6-[[2-[(3RS)-2,6-Dioxo-3-piperidyl]-1,3-dioxo-isoindolin-4-yl]amino]hexanoyl]piperazin-1-yl]methyl]phenyl]ethynyl]-1-oxo-isoindolin-2-yl]-2-phenyl-N-thiazol-2-yl-acetamide] |
| 14 | O=C1CCC(N2C(=O)c3cccc(NCCCC(=O)N4CCN(Cc5ccc(C#Cc6ccc7c(c6)C(=O)N(C(C(=O)Nc6nccs6)c6ccccc6)C7)cn5)CC4)c3C2=O)C(=O)N1 (racemic) [Example 4, (2RS)-2-[6-[2-[6-[[4-[4-[[2-[(3RS)-2,6-Dioxo-3-piperidyl]-1,3-dioxo-isoindolin-4-yl]amino]butanoyl]piperazin-1-yl]methyl]-3-pyridyl]ethynyl]-1-oxo-isoindolin-2-yl]-2-phenyl-N-thiazol-2-yl-acetamide] |
